According to the NIST ThermoML archive (doi:10.1016/j.tca.2009.03.004):
Numbers after ± are expanded uncertainties.

Legend:
[1] = DTA
[2] = Molar enthalpy of transition or fusion; settings: DSC

SMILES	Triple point temperature ([1]; Crystal)	Triple point temperature ([1]; Nematic liquid crystal)	Molar enthalpy of transition or fusion ([2]; Crystal)	Molar enthalpy of transition or fusion ([2]; Nematic liquid crystal)
CCCCCCCCOc1ccc(C=Nc2ccc(OCC)cc2)cc1 [4-ethoxy-N-[[4-(octyloxy)phenyl]methylene]benzenamine]	373.95 ± 0.5 K	395.55 ± 0.5 K	9.66 ± 0.263 kcal/mol	0.268 ± 0.0311 kcal/mol
CCCCCCCCOc1ccc(C=Nc2ccc(OCCCC)cc2)cc1 [benzenamine, 4-butoxy-N-[[4-(octyloxy)phenyl]methylene]-]	380.75 ± 0.5 K	389.55 ± 0.5 K	10.6 ± 0.287 kcal/mol	0.43 ± 0.0359 kcal/mol
